Results as given in patent US20220031740A1, “THERAPEUTIC USES OF ATOMIC QUANTUM CLUSTERS” (priority 2018, published 2022).

Tests used:
[1] = test system: Nrf2; assay: Nrf2 location by immunofluorescence in HEK293 cells; type: cell-based, human; details: HEK293, 30 minutes; Ag5-AQC IC50, NEM 100 μM
[2] = test system: A549luc orthotopic lung tumour and mediastinal lymph node metastases; assay: A549luc orthotopic lung cancer model metastasizing to mediastinal lymph nodes; type: in vivo
Method: (a) Ag5-AQCs cause a reduction in tumour growth in mice with orthotopic brain cancer. Experimental groups: Ag5-AQCs (0.25 mg/kg) and control (no treatment). (b-d) Ag5-AQCs treatment causes a reduction in tumour growth in mice with orthotopic lung cancer. (b) Tumour growth measured in vivo by luminescence (IVIS® Spectrum). Black arrows represent treatment administration times in the study. (c) Luciferase activity quantification measured ex vivo in lung and in mediastinal lymph nodes. (d) Immunohistochemical staining of lung tumour (arrows indicate the tumour nodules). Experimental groups: CDDP (4 mg/kg), Ag5-AQCs (0.25 mg/kg) and control (no treatment). (e) Body weight over the whole experiment. […]
For Ag5-AQCs treatment, mice were divided into three groups (5 animals in each): the first group (control) underwent no treatment, the second group was treated with cisplatin (CDDP) (four single doses, 4 mg/kg) and the third group was treated with Ag5-AQCs (four single doses, 0.25 mg/kg). […] The lung and mediastinal lymph nodes were removed and luminescence was quantified per microgram of protein in body as described in Borrajo et al. (2016). […]
Another limiting factor in cancer treatment is the occurrence of metastasis. […] In this model the occurrence of metastasis to lymph nodes is well established and could be detected 13 days after the injection of tumour cells. […]

[3] = test system: E. Co/i; assay: E. coli survival with Ag5-AQC and DTT; type: cell-based; details: DTT at 10 mM
Description: The mechanism responsible is thought to be thiol oxidation. […] The opposite is also true, i.e. Ag5-AQCs rescue E. Co/i from DTT action as expected from to redox agents with opposed action.

CCN1C(=O)C=CC1=O [NEM, N-ethylmaleimide]
Nrf2 staining and nuclear location [1]: increased the nuclear accumulation of Nrf2

[NH2][Pt]([NH2])([Cl])[Cl] [CDDP, Cisplatin]
luciferase activity in the primary tumour and in the mediastinal lymph nodes (ex vivo) ([2]; day 37, vs control mice): significant reduction in luciferase activity
tumour size in lung (in vivo bioluminescence) ([2]; intravenously days 20, 22, 24, 26, CDDP 4 mg/kg, Ag5-AQC 0.25 mg/kg, 37 days, vs control): significant reduction in tumour size

O[C@H](CS)[C@H](O)CS (racemic) [DTT, Dithiothreitol]
E. coli survival, DTT alone [3]: toxic for bacteria
